Measured values: patent US20070015823A1, “Ambruticin VS compounds” (priority 2004, published 2007)
Values after ≈ are worked out from the molar mass of the structure shown. Where two headings read alike, the source gives them in different places.

Key:
Candida parapsilosis = assay: microbe, parasite or virus in culture; conditions: Lodderomyces parapsilosis, read-out: MIC0 C. parapsilosis 92019
A. fumigatus ATCC 204305 = assay: Broth microdilution antifungal susceptibility, NCCLS M38-A; assay type: cell-based, Aspergillus fumigatus; conditions: Aspergillus fumigatus, ATCC204305, read-out: MIC0 A. fumigatus ATCC 204305
Candida albicans = conditions: Candida albicans, read-out: MIC0 C. albicans 90028
Blastomyces dermatitidis = assay: Broth microdilution antifungal susceptibility, NCCLS M38-A; assay type: cell-based; conditions: Blastomyces dermatitidis
Candida krusei = conditions: Pichia kudriavzevii, read-out: MIC0 C. krusei 6258
Cryptococcus neoformans = assay: Broth microdilution antifungal susceptibility, NCCLS M38-A; conditions: Cryptococcus neoformans
A. flavus ATCC 204304 = assay: as above; assay type: cell-based, Aspergillus flavus; conditions: Aspergillus flavus, ATCC204304, read-out: MIC0 A. flavus ATCC 204304
S. apiospermum = assay: as above; assay type: cell-based, Scedosporium apiospermum; conditions: Scedosporium apiospermum
Fusarium solani = assay: as above; assay type: cell-based; conditions: Fusarium solani, read-out: MIC F. solani 96-1

Molecule `CCC(C)n1ncn(-c2ccc(N3CCN(c4ccc(OCC5COC(Cn6cncn6)(c6ccc(Cl)cc6Cl)O5)cc4)CC3)cc2)c1=O` (centres unmarked) [Itraconazole, reference compound] has an MIC (Candida parapsilosis) of 0.25 µg/mL (≈ 0.354 µM), an MIC (A. fumigatus ATCC 204305) of 0.58 µg/mL (≈ 0.822 µM) and an MIC (Candida albicans) of 0.25 µg/mL (≈ 0.354 µM). The MIC (Blastomyces dermatitidis; read-out: MIC0 Blastomyces dermatitidis 04-2167) was 0.03 µg/mL (≈ 0.0425 µM), the MIC (Blastomyces dermatitidis; read-out: MIC0 Blastomyces dermatitidis 04-2508) was 0.03 µg/mL (≈ 0.0425 µM) and the MIC (Blastomyces dermatitidis; read-out: MIC0 Blastomyces dermatitidis 04-2915) was 0.06 µg/mL (≈ 0.085 µM). For the same molecule, the MIC (Blastomyces dermatitidis; read-out: MIC0 Blastomyces dermatitidis 05-106) was 0.06 µg/mL (≈ 0.085 µM), the MIC (Blastomyces dermatitidis; read-out: MIC0 Blastomyces dermatitidis 05-186) was 0.06 µg/mL (≈ 0.085 µM) and the MIC (Blastomyces dermatitidis; read-out: MIC0 Blastomyces dermatitidis 05-1391) was 0.03 µg/mL (≈ 0.0425 µM). For the same molecule, the MIC (Blastomyces dermatitidis; read-out: MIC0 Blastomyces dermatitidis 05-1707) was ≤ 0.015 µg/mL, the MIC (Blastomyces dermatitidis; read-out: MIC0 Blastomyces dermatitidis 05-1820) was ≤ 0.015 µg/mL and the MIC (Blastomyces dermatitidis; read-out: MIC0 Blastomyces dermatitidis 05-1829) was 0.06 µg/mL (≈ 0.085 µM). For the same molecule, the MIC (Blastomyces dermatitidis; read-out: MIC0 Blastomyces dermatitidis 05-2020) was ≤ 0.015 µg/mL, the MIC (Blastomyces dermatitidis; read-out: MIC0 Blastomyces dermatitidis R-3529) was ≤ 0.015 µg/mL and the MIC (Blastomyces dermatitidis; read-out: MIC0 Blastomyces dermatitidis R-35629) was ≤ 0.015 µg/mL. For the same molecule, the MIC (Candida krusei) was 0.25 µg/mL (≈ 0.354 µM), the MIC (Cryptococcus neoformans; read-out: MIC C. neoformans 97-14) was 0.125 µg/mL (≈ 0.177 µM) and the MIC (Cryptococcus neoformans; read-out: MIC C. neoformans 11239) was 0.031 µg/mL (≈ 0.0439 µM). For the same molecule, the MIC (Cryptococcus neoformans; read-out: MIC C. neoformans 11240) was 0.313 µg/mL (≈ 0.444 µM), the MIC (A. flavus ATCC 204304) was 0.47 µg/mL (≈ 0.666 µM) and the MIC (S. apiospermum; read-out: MIC S. apiospermum 98-38) was 1 to 4 µg/mL (≈ 1.42 to 5.67 µM). The MIC (S. apiospermum; read-out: MIC S. apiospermum 98-89) was 1 to 2 µg/mL (≈ 1.42 to 2.83 µM) and the MIC (Fusarium solani) was > 4 µg/mL.
